# Data published in patent US20210207099A1, “METHODS AND COMPOSITIONS FOR GENERATING CELLS OF ENDODERMAL LINEAGE AND BETA CELLS AND USES THEREOF” (priority 2018, published 2021).
# Key:
# Stage 6 cells [1] = experiment: Perifusion GSIS with sequential secretagogue challenges; type: cell-based, human; conditions: for insulin secretion during second challenge, secretagogue added to 20 mM glucose: 30 mM KCL, 20 mM L-Arginine, 300 μM Tolbutamide, 100 μM IBMX, 10 nM Extendin-4
# Method: The system used a high precision 8-channel dispenser pump (ISMATEC; ISM931C) in conjunction with 0.015″ inlet and outlet two-stop tubing (ISMATEC; 070602-04i-ND) connected to 275-μl cell chamber (BioRep; Pen-Chamber) and dispensing nozzle (BioRep; PERI-NOZZLE) using 0.04″ connection tubbing (BioRep; Peri-TUB-040). Solutions, tubing, and cells were maintained at 37° C. in a water bath. Stage 6 clusters and cadaveric human islets were washed with KRB twice and resuspended in 2 mM glucose KRB. Cells were then loaded onto a Biorep perifusion chamber sandwiched between two layers of Bio-Gel P-4 polyacrylamide beads (Bio-Rad; 150-4124). Cells were perfused with 2 mM glucose KRB for 90 min prior to sample collection for equilibration. For single high glucose challenges, sample collection was started with cells exposed to 2 mM glucose KRB for 12 min, followed by 24 min of 20 mM glucose KRB, and back to 2 mM glucose KRB for an additional 12 min. For multiple secretagogue challenges, sample collection was started with cells exposed to 2 mM glucose KRB for 6 min, followed by 12 min of 20 mM glucose KRB, 6 min 2 mM glucose KRB, 12 min of 20 mM glucose KRB plus treatment, and finally 6 min of 2 mM glucose KRB. Treatments with multiple secretagogues were as follows: 20 mM glucose only, 10 nM Extendin-4 (MilliporeSigma; E7144), 100 μM IBMX (MilliporeSigma; 15879), 300 μM Tolbutamide (MilliporeSigma; T0891), 20 mM L-Arginine (MilliporeSigma; A5006), and 30 mM KCL (Thermo Fisher; BP366500). Effluent was collected at a 100 μl/min flow rate with 2-4 min collection points. After sample collection, clusters were collected and lysed in 10 mM Tris (MilliporeSigma; T6066), 1 mM EDTA, and 0.2% Triton-X 100 solution and DNA was quantified using Quant-iT Picogreen dsDNA assay kit (Invitrogen; P7589). Insulin secretion was quantified using the Human Insulin Elisa kit.
# plated stage 4 cells = experiment: qRT-PCR and immunostaining of plated stage 4 cells treated with cytoskeletal modifying compounds; type: cell-based, human
# Description: For experiments investigating the effects of plating pancreatic progenitors, cells were differentiated with the suspension protocol for stages 1-3. At the end of stage 3, clusters were single cell dispersed with TrypLE and plated onto tissue culture plates coated with various ECM proteins at 0.625×10^6 cells/cm^2. Differentiation media for the remainder of this hybrid protocol were the same as for the suspension protocol with the exception that Y-27632 and Activin A were omitted on days 2-5 of stage 4. Additional compounds were added as indicated in each experiment: 1 μM latrunculin A (Cayman Chemical, 10010630), 1 μM latrunculin B (Cayman Chemical, 10010631), 1 μM cytochalasin D (MilliporeSigma, C2618), 1 μM jasplakinolide (Cayman Chemical, 11705), 10 μM blebbistatin (MilliporeSigma, 203389), 1 μM nocodazole (Cayman Chemical, 13857), 1 μM Y-15 (Cayman Chemical, 14485), 10 μM Y-27632, and 10 μM GDC-0994 (Selleckchem, S7554). A variety of ECM coatings were initially tested with this plating methodology, including collagen I (Corning, 354249), collagen IV (Corning, 354245), fibronectin (Gibco, 33016-015), vitronectin (Gibco, A14700), matrigel (Corning, 356230), gelatin (Fisher, G7-500), and laminins 111, 121, 211, 221, 411, 421, 511, and 521 (Biolamina, LNKT-0201). All subsequent experiments with this hybrid protocol were performed on collagen I.
# Brightfield images were taken with a Leica DMi1 inverted light microscope, and fluorescence images were captured with a Nikon A1Rsi confocal microscope. For immunostaining, cells were fixed with 4% paraformaldehyde (PFA) at room temperature for 30 minutes. They were then blocked and permeabilized for 45 minutes at room temperature with an immunocytochemistry (ICC) solution consisting of 0.1% triton X (Acros Organics, 327371000) and 5% donkey serum (Jackson Immunoresearch, 017000-121) in PBS (Corning, 21-040-CV). Samples were then incubated with primary antibodies diluted in ICC solution overnight at 4° C., washed with ICC, incubated with secondary antibodies diluted in ICC for 2 hours at room temperature, and stained with DAPI for 15 minutes at room temperature. For histological sectioning, whole SC-β cell clusters generated with the planar protocol and mouse kidneys containing transplanted cells were fixed overnight with 4% PFA at 4° C. The in vitro clusters were also embedded in Histogel (Thermo Scientific, hg-4000-012). These samples were then paraffin-embedded and sectioned by the Division of Comparative Medicine (DCM) Research Animal Diagnostic Laboratory Core at Washington University in St. Louis. Paraffin was removed from sectioned samples with Histoclear (Thermo Scientific, C78-2-G), and antigen retrieval was carried out in a pressure cooker (Proteogenix, 2100 Retriever) with 0.05 M EDTA (Ambion, AM9261). Slides were blocked and permeabilized with ICC solution for 45 minutes, incubated with primary antibodies in ICC solution overnight at 4° C., and incubated with secondary antibodies for 2 hours at room temperature. Slides were then sealed with DAPI Fluoromount-G (SouthernBiotech, 0100-20).
# RNA was extracted from either whole clusters or cells directly on the plate with the RNeasy Mini Kit (Qiagen, 74016). Samples were treated with a DNAse kit (Qiagen, 79254) during extraction. The High Capacity cDNA Reverse Transcriptase Kit (Applied Biosystems, 4368814) was used to synthesize cDNA on a thermocycler (Applied Biosystems, A37028). The PowerUp SYBR Green Master Mix (Applied Biosystems, A25741) was used on a StepOnePlus (Applied Biosystems), and real time PCR results were analyzed using a ΔΔCt methodology. TBP and GUSB were both used as housekeeping genes. Primer sequences were as follows.
# [2] = system: TGFβ signaling (phosphorylated SMAD); experiment: Western blot of SMAD 2/3 phosphorylation in Stage 6 cells; type: cell-based, human; conditions: Alk5i versus DMSO
# Method: Protein was extracted from cell clusters after washing with PBS by placing in western blot lysis buffer consisting 50 mM HEPES, 140 mM NaCl (MilliporeSigma; 7647-14-5), 1 mM EDTA (MilliporeSigma, 1233508), 1% Triton X-100, 0.1% Na-deoxycholate (MilliporeSigma: D6750), 0.1% SDS (ThermoScientific; 24730020), 1 mM Na3VO4 (MilliporeSigma; 450243), 10 mM NaF (MilliporeSigma; S7920), and 1% Protease Inhibitor Cocktail (MilliporeSigma; p8340), incubating on a shaker for 15 min at 4° C., and centrifuging at 10000 RCF for 10 min at 4° C. Protein amount was quantified with the Pierce BCA Protein Assay (Thermo Scientific; 23228). Protein (30 μg) was loaded onto a 4-20% gradient polyacrylamide gel (Invitrogen; SP04200BOX), resolved by electrophoresis, and transferred onto a 0.45 μm nitrocellulose membrane (BioRad; 1620115). The nitrocellulose membrane was blocked with Blotting Grade Blocker (BioRad; 170-6404) and incubated with rabbit-anti-phospho-SMAD⅔ 1:1000 (Cell Signaling Technologies; 8828) and rabbit-anti-Actin 1:1000 (Santa Cruz Biotechnology; SC1616) antibodies in blocker overnight at 4° C. Membrane was washed and stained with rabbit secondary antibody 1:2500 (Jackson Immuno Research Laboratories; 211-032-171) in blocker for 2 hr at 4° C. and developed using SuperSignal West Femto (Thermo Scientific; 34096). Images were taken on an Odyssey FC (Li-COR). After imaging, the nitrocellulose membrane was stripped using Restore Western Blot Stripping Buffer (Thermo Scientific; 21059), incubated with rabbit-anti-SMAD⅔ (Cell Signaling Technologies; 8685) antibody overnight at 4° C., washed and stained with rabbit secondary antibody 1:2500 in blocker for 2 hr 4° C., developed using SuperSignal West Femto, and imaged using the Odyssey FC.
# Stage 5 cells = system: Stage 5 cells
# Method: To initiate differentiation, undifferentiated cells were single-cell dispersed using Accutase and seeded at 6×10^5 cells/mL in mTeSR1+10 μM Y27632 in a 30-ml spinner flask. Cells were then cultured for 72 hr in mTeSR1 and then cultured in the following differentiation media. Stage 1 (3 days): S1 media+100 ng/ml Activin A (R&D Systems; 338-AC)+3 μM Chir99021 (Stemgent; 04-0004-10) for 1 day. S1 media+100 ng/ml Activin A for 2 days. Stage 2 (3 days): S2 media+50 ng/ml KGF (Peprotech; AF-100-19). Stage 3 (1 day): S3 media+50 ng/ml KGF+200 nM LDN193189 (Reprocell; 040074)+500 nM PdBU (MilliporeSigma; 524390)+2 μM Retinoic Acid (MilliporeSigma; R2625)+0.25 μM Sant1 (MilliporeSigma; S4572)+10 μM Y27632. Stage 4 (5 days): S4 media+5 ng/mL Activin A+50 ng/mL KGF+0.1 μM Retinoic Acid+0.25 μM SANT1+10 μM Y27632. Stage 5 (7 days): S5 media+10 μM ALK5i II (Enzo Life Sciences; ALX-270-445-M005)+20 ng/mL Betacellulin (R&D Systems; 261-CE-050)+0.1 μM Retinoic Acid+0.25 μM SANT1+1 μM T3 (Biosciences; 64245)+1 μM XXI (MilliporeSigma; 595790). Stage 6 (7-35 days): ESFM.
# (§1) Assays were performed by collecting ˜20-30 stage 6 clusters or cadaveric human islets, washed twice with KRB buffer (128 mM NaCl, 5 mM KCl, 2.7 mM CaCl2) 1.2 mM MgSO4, 1 mM Na2HPO4, 1.2 mM KH2PO4, 5 mM NaHCO3, 10 mM HEPES (Gibco; 15630-080), and 0.1% BSA), resuspended in 2 mM glucose KRB, and placed into transwells (Corning; 431752) in 24-well plates. Clusters were incubated at 2 mM glucose KRB for a 1 hr equilibration. The transwell was then drained and transferred into a new 2 mM glucose KRB well, discarding the old KRB solution. Clusters were again incubated for 1 hr at low glucose and then the transwell is drained and transferred into a new 2, 5.6, 11.1, or 20 mM glucose KRB well, retaining the old 2 mM glucose KRB. Clusters were then incubated for 1 hr at high glucose and then the transwell was drained and the old glucose KRB was retained. The retained KRB was run with the Human Insulin Elisa (ALPCO; 80-INSHU-E10.1) to quantify insulin secretion. The cells were single-cell dispersed by TrypLE treatment, counted on a Vi-Cell XR, and viable cell counts used to normalize insulin secretion.
# Clusters were single-cell dispersed with TrypLE, fixed with 4% paraformaldehyde for 30 min at 4° C., blocked and permeabilized with staining buffer for 30 min at 4° C., incubated with primary antibodies in staining buffer overnight at 4° C., incubated with secondary antibodies in staining buffer for 2 hr at 4° C., resuspended in staining buffer, and analyzed on an LSRII (BD Biosciences) or X-20 (BD Biosciences). Dot plots and percentages were generated using FlowJo. All antibodies were used at 1:300 dilution except where noted. The antibodies used were: rat-anti-C-peptide, mouse-anti-nkx6.1 (1:100), mouse-anti-glucagon, rabbit-anti-somatostatin, rabbit-anti-chromogranin A (1:1000), goat-anti-pdx1, anti-rat-alexa fluor 488, anti-mouse-alexa fluor 647 (Invitrogen; a31571), anti-rabbit-alexa fluor 647 (Invitrogen; a31573), anti-goat-alexa fluor 647 (Invitrogen; a21447), anti-rabbit-alexa fluor 488 (Invitrogen; a21206).
# RNA was extracted using the RNeasy Mini Kit (Qiagen; 74016) with DNase treatment (Qiagen; 79254), and cDNA was synthesized using High Capacity cDNA Reverse Transcriptase Kit (Applied Biosystems; 4368814). Real-time PCR reactions were performed in PowerUp SYBR Green Master Mix (Applied Biosystems; A25741) on a StepOnePlus (Applied Biosystems) and analyzed using ΔΔCt methodology. TBP was used as a normalization gene.
# Stage 6 cells [3] = system: Stage 6 cells
# Method: as §1
compound,measurement,setting,value
exendin-4,"insulin secretion during second challenge, secretagogue added to 20 mM glucose",Stage 6 cells [1],increased insulin secretion over high glucose alone
C/C1=C/C(=O)O[C@@H]2C[C@@H](CC[C@H](C)/C=C\CC1)O[C@@](O)([C@@H]1CSC(=O)N1)C2 [Latrunculin B],dose response of NEUROG3 expression,"plated stage 4 cells; added during stage 4, qRT-PCR",increased NEUROG3 expression in a dose-dependent manner
same,concentration required relative to latrunculin A to achieve a similar effect on NEUROG3,"plated stage 4 cells; plated HUES8, stage 4",~10 ×
"Cc1cccc(-c2[nH]ncc2-c2ccc3ncccc3n2)n1 [Alk5i, Alk5 inhibitor type II]",phosphorylated SMAD,[2],diminished phosphorylated SMAD
same,insulin secretion after further 7 d in Stage 6,"Stage 5 cells; Alk5i during Stage 5, Stage 6 without Alk5i nor cluster resizing, 20 mM glucose",substantially higher in cells treated with Alk5i during Stage 5
same,INS and GCG gene expression,Stage 5 cells; Alk5i omission during Stage 5,decreased with Alk5i omission
same,SST expression,Stage 5 cells; Alk5i omission during Stage 5,slightly increased
same,fraction of cells co-expressing C-peptide and NKX6-1,Stage 5 cells; omitting Alk5i during Stage 5,decreased by omitting Alk5i
same,fraction of cells differentiated to a C-peptide+ phenotype,Stage 5 cells; omitting Alk5i during Stage 5,decreased by omitting Alk5i
same,fraction of cells differentiated to endocrine cells (CHGA+),Stage 5 cells; omitting Alk5i during Stage 5,unchanged
same,expression of NKX6-1 and PDX1,Stage 5 cells; without Alk5i during Stage 5,reduced without Alk5i
same,GSIS in a static assay with inclusion during Stage 6,Stage 6 cells [3]; Alk5i during Stage 6,relatively weak but statistically significant GSIS
same,insulin secretion in the dynamic GSIS assay,Stage 6 cells [3]; Alk5i during Stage 6,dramatically reduced insulin secretion
same,proinsulin/insulin ratio,Stage 6 cells [3]; DMSO versus Alk5i during Stage 6,remained similar
same,"fraction of cells expressing pancreatic endocrine markers, including C-peptide","Stage 6 cells [3]; DMSO- versus Alk5i-treated cells, Stage 6",remained similar
same,insulin content,Stage 6 cells [3]; removal of Alk5i during Stage 6 versus treatment,increased with removal of Alk5i
N=C(N)NCCC[C@H](N)C(=O)O [L-Arginine],"insulin secretion during second challenge, secretagogue added to 20 mM glucose",Stage 6 cells [1],largest increases
C/C1=C\[C@H](C)C[C@H](C)OC(=O)C[C@H](c2ccc(O)cc2)NC(=O)[C@@H](Cc2c(Br)[nH]c3ccccc23)N(C)C(=O)[C@H](C)NC(=O)[C@@H](C)C1 [jasplakinolide],premature NEUROG3 expression in reaggregated clusters,plated stage 4 cells; added to pancreatic progenitors during reaggregation after dispersion,attenuated premature NEUROG3 expression
[Cl-].[K+] [KCl],response of Stage 6 cells to KCl challenge compared to human islets,Stage 6 cells [1]; 30 mM KCL with 20 mM glucose,stronger than in human islets
same,"insulin secretion during second challenge, secretagogue added to 20 mM glucose",Stage 6 cells [1],largest increases
CC(C)Cn1c(=O)n(C)c(=O)c2[nH]cnc21 [3-isobutyl-1-methylxanthine],"insulin secretion during second challenge, secretagogue added to 20 mM glucose",Stage 6 cells [1],increased insulin secretion over high glucose alone
CCCCNC(=O)NS(=O)(=O)c1ccc(C)cc1 [Tolbutamide],"insulin secretion during second challenge, secretagogue added to 20 mM glucose",Stage 6 cells [1],increased insulin secretion over high glucose alone
